Common to all, as to assay type: biochemical
The target in test [1] is T1, PIP4K 2A (Homo sapiens, UniProt P48426).
T1 sequence (P48426 1-406): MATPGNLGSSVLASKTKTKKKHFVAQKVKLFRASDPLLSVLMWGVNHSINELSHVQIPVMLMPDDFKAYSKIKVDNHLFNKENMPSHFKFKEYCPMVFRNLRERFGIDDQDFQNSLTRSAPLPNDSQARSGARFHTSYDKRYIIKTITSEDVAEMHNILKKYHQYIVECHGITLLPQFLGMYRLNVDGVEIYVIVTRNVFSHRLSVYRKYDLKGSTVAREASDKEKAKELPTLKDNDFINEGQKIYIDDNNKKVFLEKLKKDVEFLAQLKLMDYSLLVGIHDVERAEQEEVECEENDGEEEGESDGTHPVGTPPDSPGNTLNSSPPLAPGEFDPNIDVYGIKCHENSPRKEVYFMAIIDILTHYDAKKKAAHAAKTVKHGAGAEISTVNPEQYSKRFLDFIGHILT
In words: Kinase Assay PIP4K2 A (PIP4KtypeIIA inhibition assay). Details: made in house; host or cells: E. coli. To be noted: compounds listed under IC50 bin headings. An excerpt:
GST tagged PIP4KtypeIIA and B enzymes were overexpressed in E. Coli and purified to >80% homogeneity. Phosphatidyl inositol-5-phosphate (PI5P, Cat. #850152, Avanti Polar Lipids Inc.) was used as the lipid substrate and phosphatidyl ethanolamine (DOPE 18:1, Cat. #850725, Avanti Polar Lipids Inc.) was used as the carrier lipid for assays. Ultrapure ATP and GTP was purchased from Bellbrooke Labs. ADP Glo reagents were obtained from Promega. Transcreener FI reagent was obtained from Bellbrooke labs.
Enzyme preparation: GST-tagged PIP4KtypeIIA (5 uL, 1.43 mg/mL) was diluted (1:10) to 50 uL using HNE buffer. From the 1:10 diluted stock, a 6.4 uL aliquot was diluted further to 5 mL using HNE buffer to yield 5× enzyme stock (2.5 nM).
Lipid Preparation: In a 10 mL pyrex glass vial, 1 ug of PI5P and 1 ug of DOPE were suspended in 2.5 mL of HEPES buffer mix and 2.5 mL of H:E buffer. The contents were mixed and sonicated for 3 min to yield a translucent lipid stock.
Compound Preparation: Compounds were stored as 5 mM stocks in neat DMSO as room temperature in glass vials. 5 mM stocks were diluted to 2 mM and then serially diluted (3×) in neat DMSO in 96 well polypropylene plates. From the serially diluted stocks, 3 uL was delivered into 250 uL of 25% DMSO (in water) to generate 5× compound stocks. Typically, the highest compound conc. was 24 uM.
The assay volume was kept at 25 uL. To each well of the reaction plate, 10 uL of lipid stock (1:1 ratio PI5P:DOPE) was delivered. This was followed by the addition of 5 uL of compound in 25% DMSO. Then, to each well, 5 uL of 2.5 nM (5×) typeIIA enzyme was delivered. The contents were mixed well and incubated for 1 h at 27 C. After 1 h, reaction was initiated by adding 5 uL of 50 uM ATP and the contents were mixed well with a multi-channel pipetteman. The final concentration of the reagents are as follows: 50 mM HEPES, pH 7.3, 10 mM MgCl2, 20 mM NaCl, 0.01% v/v triton-X100, 5% DMSO, 10 uM ATP, 80 uM (2 ug) PI5P, 2 ug DOPE, and 0.5 nM PIP4KIIA. Typically, the highest conc. of compounds was 4.8 uM and the lowest conc. was 0.
After 1 hr, the reaction was quenched by adding 25 uL of ADP Glo reagent. The contents were incubated for 1 hr. Afterwards, 50 uL of kinase detection reagent was delivered. The contents were incubated for another hour. The luminescence was read using Molecular Devices Paradigm plate reader. […] The blanks were averaged and subtracted from all other wells. Using a calibration curve, RLU was converted to uM ADP (product). IC50 was calculated by plotting the residual activity (expressed as % No inhibitor control) vs. log [Inh. conc.]

Test [2] deals with T1, PIP4K 2A. Kind of test: ADP-glo kinase assay PIP4K 2A. Further details: 4 nM PIP4K2A (full length protein, SignalChem); purchased SignalChem. To be noted: compounds listed under IC50 bin headings. In a few lines:
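Inhibition was calculated versus DMSO controls from ADP-Glo luminescence and fitted to IC50 over a 10-point, threefold series. Compound was first pre-incubated 15 min at room temperature with PIP4K2A (full-length; 4 nM in the enzyme/substrate mix) and PI(5)P diC8 (100 μM in that mix). The reaction then ran for 1 h after adding 60 μM ATP solution, in MOPS pH 7.2/MgCl2/Tween buffer.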

In a further test the target is T2, PIP4K2B (Homo sapiens, UniProt P78356).
T2 construct: made in house; host or cells: E. coli
T2 sequence (P78356 1-416): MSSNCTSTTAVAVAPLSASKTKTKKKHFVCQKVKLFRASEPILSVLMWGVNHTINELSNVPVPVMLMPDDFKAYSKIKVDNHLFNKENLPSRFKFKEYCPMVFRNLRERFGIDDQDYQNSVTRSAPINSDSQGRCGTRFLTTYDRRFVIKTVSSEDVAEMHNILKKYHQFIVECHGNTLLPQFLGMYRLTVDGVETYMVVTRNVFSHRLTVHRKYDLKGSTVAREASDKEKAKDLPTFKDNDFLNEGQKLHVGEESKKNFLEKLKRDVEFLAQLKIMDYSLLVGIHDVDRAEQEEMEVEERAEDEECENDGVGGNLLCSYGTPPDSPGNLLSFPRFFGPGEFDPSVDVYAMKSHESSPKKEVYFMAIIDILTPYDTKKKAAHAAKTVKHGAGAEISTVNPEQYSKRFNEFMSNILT
In words: Trans-FI P kinase assay PIP4K2B (PIP4KtypeIIB inhibition assay). To be noted: compounds listed under IC50 bin headings; 100 uM GTP; read-out: Trans-FI P kinase assays: PIP4K2B IC50. In a few lines: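 Transcreener FI fluorescence read-out of GDP formed by E. coli-expressed GST-PIP4K2B (5 nM) using 100 uM GTP and 80 uM PI5P with DOPE carrier lipid, pH 7.3, 2 h reaction. Compounds (up to 4.8 uM) were preincubated with enzyme 1 h at 27 C; IC50 fitted from residual activity relative to no-inhibitor control.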

The structures appear in SMILES notation.

What is called IC50 is the concentration needed to halve the response being measured.

As for `CC1Oc2cc(N3CCCC3=O)ccc2-c2cnc(Nc3cncc(OC(F)F)c3)cc21` (stereo not drawn) [Example 41, 1-(3-((5-(difluoromethoxy)pyridin-3-yl)amino)-5-methyl-5H-chromeno[4,3-c]pyridin-8-yl)pyrrolidin-2-one], the results for the IC50 at PIP4K 2A [1], on PIP4K 2A [2] and at PIP4K2B were 1 to 10 nM, 10 to 100 nM and more than 1000 nM, respectively.
For the compound `CC(=O)N1CCOc2ncc(Nc3cc4c(cn3)-c3ccc(N5CCCC5=O)cc3OC4C)cc21` (stereo not drawn) [Example 42, 1-(3-((1-acetyl-2,3-dihydro-1H-pyrido[2,3-b][1,4]oxazin-7-yl)amino)-5-methyl-5H-chromeno[4,3-c]pyridin-8-yl)pyrrolidin-2-one], the IC50 against PIP4K 2A [1] was not above 1 nM; on PIP4K 2A [2], 1 to 10 nM; on PIP4K2B, 10 to 100 nM.
On the same counts, the results for `CC1c2cc(Nc3cccnc3)ncc2-c2ccc(N3CCCC3=O)cc2N1C` (stereo not drawn) [Example 43, 1-(5,6-dimethyl-3-(pyridin-3-ylamino)-5,6-dihydrobenzo[c][2,6]naphthyridin-8-yl)pyrrolidin-2-one] are 10 to 100 nM, 10 to 100 nM and more than 1000 nM.
Regarding `CC1c2cc(Nc3cnc4c(c3)N3C(=O)CC[C@H]3CO4)ncc2-c2ccc(N3CCCC3=O)cc2N1C` (stereo partly drawn) [Example 44, (6aS)-2-((5,6-dimethyl-8-(2-oxopyrrolidin-1-yl)-5,6-dihydrobenzo[c][2,6]naphthyridin-3-yl)amino)-6,6a,7,8-tetrahydro-9H-pyrido[2,3-b]pyrrolo[1,2-d][1,4]oxazin-9-one], the IC50 against PIP4K 2A [1] is not above 1 nM; on PIP4K 2A [2] it was 1 to 10 nM; at PIP4K2B, 10 to 100 nM.
On the same counts, the results for `CC1c2cc(Nc3cnc4c(c3)OCCO4)ncc2-c2ccc(N3CCCC3=O)cc2N1C` (stereo not drawn) [Example 45, 1-(3-((2,3-dihydro-[1,4]dioxino[2,3-b]pyridin-7-yl)amino)-5,6-dimethyl-5,6-dihydrobenzo[c][2,6]naphthyridin-8-yl)pyrrolidin-2-one] are 1 to 10 nM, 10 to 100 nM and 100 to 1000 nM.
As to `CC1Oc2cc(N3CCCC3=O)c(F)cc2-c2cnc(Nc3cccnc3)cc21` (stereo not drawn) [Example 46, 1-(9-fluoro-5-methyl-3-(pyridin-3-ylamino)-5H-chromeno[4,3-c]pyridin-8-yl)pyrrolidin-2-one], the IC50 against PIP4K 2A [1] lay in the range of 1 to 10 nM; at PIP4K 2A [2], 10 to 100 nM; on PIP4K2B, 100 to 1000 nM.
On the same counts, the results for `CC1Oc2cc(N3CCCC3=O)c(F)cc2-c2cnc(Nc3cnc4c(c3)N3C(=O)CC[C@H]3CO4)cc21` (stereo partly drawn) [Example 47, (6aS)-2-((9-fluoro-5-methyl-8-(2-oxopyrrolidin-1-yl)-5H-chromeno[4,3-c]pyridin-3-yl)amino)-6,6a,7,8-tetrahydro-9H-pyrido[2,3-b]pyrrolo[1,2-d][1,4]oxazin-9-one] are not above 1 nM, not above 1 nM and 1 to 10 nM.
Regarding `CC1Oc2cc(N3CCCC3=O)ccc2-c2cnc(Nc3cncc(N(C)S(C)(=O)=O)c3)cc21` (stereo not drawn) [Example 48, N-methyl-N-(5-((5-methyl-8-(2-oxopyrrolidin-1-yl)-5H-chromeno[4,3-c]pyridin-3-yl)amino)pyridin-3-yl)methanesulfonamide], the IC50 fell in the range of 1 to 10 nM against PIP4K 2A [1], 1 to 10 nM on PIP4K 2A [2] and 100 to 1000 nM at PIP4K2B.
For `CC1Oc2cc(N3CCCC3=O)ccc2-c2cnc(Nc3cnc4c(c3)N(S(C)(=O)=O)CCO4)cc21` (stereo not drawn) [Example 49, 1-(5-methyl-3-((1-(methylsulfonyl)-2,3-dihydro-1H-pyrido[2,3-b][1,4]oxazin-7-yl)amino)-5H-chromeno[4,3-c]pyridin-8-yl)pyrrolidin-2-one], the IC50 on PIP4K 2A [1] was not above 1 nM; at PIP4K 2A [2], 1 to 10 nM; at PIP4K2B, 100 to 1000 nM.
On the same counts, the results for `CC1Oc2cc(N3CCCC3=O)ccc2-c2cnc(Nc3cncc(F)c3)cc21` (stereo not drawn) [Example 50, 1-(3-((5-fluoropyridin-3-yl)amino)-5-methyl-5H-chromeno[4,3-c]pyridin-8-yl)pyrrolidin-2-one] are 1 to 10 nM, 10 to 100 nM and more than 1000 nM.
Turning to `CC1Oc2cc(N3CCCC3=O)ccc2-c2cnc(Nc3cncc(N(C4CC4)S(C)(=O)=O)c3)cc21` (stereo not drawn) [Example 51, N-cyclopropyl-N-(5-((5-methyl-8-(2-oxopyrrolidin-1-yl)-5H-chromeno[4,3-c]pyridin-3-yl)amino)pyridin-3-yl)methanesulfonamide], the values for the IC50 on PIP4K 2A [1], against PIP4K 2A [2] and at PIP4K2B were not above 1 nM, 1 to 10 nM and 10 to 100 nM, respectively.
Turning to `CC1Oc2cc(N3CCCC3=O)ccc2-c2cnc(Nc3cnc4c(c3)N(S(=O)(=O)C3CC3)CCO4)cc21` (stereo not drawn) [Example 52, 1-(3-((1-(cyclopropylsulfonyl)-2,3-dihydro-1H-pyrido[2,3-b][1,4]oxazin-7-yl)amino)-5-methyl-5H-chromeno[4,3-c]pyridin-8-yl)pyrrolidin-2-one], the IC50 is not above 1 nM against PIP4K 2A [1], 1 to 10 nM against PIP4K 2A [2] and 100 to 1000 nM at PIP4K2B.
On the same counts, the results for `CC1Oc2cc(N3CCCC3=O)ccc2-c2cnc(Nc3cncc(N4CCN(C)C4=O)c3)cc21` (stereo not drawn) [Example 53, 1-methyl-3-(5-((5-methyl-8-(2-oxopyrrolidin-1-yl)-5H-chromeno[4,3-c]pyridin-3-yl)amino)pyridin-3-yl)imidazolidin-2-one] are not above 1 nM, 1 to 10 nM and 10 to 100 nM.
With `CC1Oc2cc(N3CCCC3=O)ccc2-c2cnc(Nc3cncc(N4CCCC4=O)c3)cc21` (stereo not drawn) [Example 54, 1-(5-methyl-3-((5-(2-oxopyrrolidin-1-yl)pyridin-3-yl)amino)-5H-chromeno[4,3-c]pyridin-8-yl)pyrrolidin-2-one], the IC50 was not above 1 nM against PIP4K 2A [1], 1 to 10 nM on PIP4K 2A [2] and 10 to 100 nM at PIP4K2B.
On the same counts, the results for `CC1Oc2cc(N3CCCC3=O)ccc2-c2cnc(Nc3cncc(N4CCNC4=O)c3)cc21` (stereo not drawn) [Example 55, 1-(5-((5-methyl-8-(2-oxopyrrolidin-1-yl)-5H-chromeno[4,3-c]pyridin-3-yl)amino)pyridin-3-yl)imidazolidin-2-one] are not above 1 nM, 1 to 10 nM and 10 to 100 nM.

The values above are taken from patent US11584763B2, “Chromenopyridine derivatives as phosphatidylinositol phosphate kinase inhibitors” (HIBERCELL, INC., priority 2017, dated 2023).
